SMILES strings stand for the structures.

In general, IC50 refers to the concentration that inhibits the measured activity by half. Read a high IC50 as a need for much substance.

The subject of the test is P. falciparum 3D7 growth, pLDH absorbance. The test can be described thus: blood-stage malaria parasite growth potency – strain 3D7, dose response (AID 2305).
For `COC(=O)CCCCOc1cc(Cc2cnc(N)nc2N)cc(OC)c1OC`, the IC50 worked out at 170 nM.

`CCOC(=O)C1=C(C)N=c2sc(=Cc3cc(Cl)ccc3O)c(=O)n2C1c1cc(OC)c(OC)cc1Br` (configuration not stated) yielded an IC50 of 990 nM. This IC50 is about 5.8-fold higher than that of the molecule before.

`CC[C@H]1CN(Cc2ccco2)CC[C@H]1CCCc1ccnc2ccc(O)cc12`: the IC50 amounted to 1270 nM.

`CN1CCN(CCCN(Cc2ccc(-c3cccc(CNCc4ccc5c(c4)OCO5)c3)cc2)C(=O)NC2CCCCC2)CC1`: the IC50 turned out to be 990 nM.

`CCc1cn(C)c2c(N3CCCC3=O)cc(C(=O)N[C@@H](Cc3ccccc3)[C@H](O)CNC(C)(C)c3cccc(C(F)(F)F)c3)cc12` displayed an IC50 of 110 nM.

`NC1CCN(c2nc(NCCCc3ccc(O)cc3)nc(NCc3ccccc3-c3ccc(C(F)(F)F)cc3)n2)CC1` displayed an IC50 of 730 nM. This IC50 is about 6.6-fold higher than that of the molecule before.

In the case of `CC1CCN(C(=O)C(Cc2c[nH]c3ccccc23)NS(=O)(=O)c2ccc(Cl)cc2)CC1` (configuration not stated), the IC50 stood at 720 nM. This IC50 and that of the molecule before are within 1.5-fold of each other.

`CC(C)CCCC(C)NC[C@@H](O)[C@H](Cc1ccccc1)NC(=O)c1cc(N2CCCC2=O)cc(N(c2ccccc2)S(C)(=O)=O)c1` (some centres not stated) had an IC50 of 60 nM.

On to `CC(CN(C)C)C(=O)Nc1cccc(-c2ccc(-c3nc4ccc(F)cc4[nH]3)s2)c1` (configuration not stated), for which the IC50 turned out to be 800 nM.

For `CS(=O)(=O)Cc1ccc(Nc2nccc(NC3CCN(c4nccc(C(F)(F)F)n4)CC3)n2)cc1`, the IC50 worked out at 900 nM.

The molecule `CC(C)COc1ccc(C(O)C(CN2CCCCC2)c2ccccc2)cc1` (configuration not stated) gave an IC50 of 920 nM.

`COc1cc(NCC2(CNCc3cn(Cc4ccccc4)c4ccccc34)CCCCC2)nc2ccccc12` gave an IC50 of 950 nM.

`COC(=O)c1cccc(CNCc2ccc(-c3cccc(-c4nc5ccc(C(F)(F)F)cc5[nH]4)c3)cc2)c1` showed an IC50 of 160 nM.

Turning to `O=C(c1ccco1)N1CCN(c2nc(-c3ccc(Cl)cc3)nc3ccccc23)CC1`, the IC50 came to 930 nM. Against the preceding molecule, the IC50 is about 5.8-fold higher.

As to `CCCCCCc1cc2cc(-c3csc(C=Cc4ccccc4)n3)c(=O)oc2cc1O`, the concentration for half-maximal inhibition (IC50) came to 970 nM. This IC50 and that of the molecule before are within 1.5-fold of each other.

Consider `CC(C)(CNCc1ccc(C(F)(F)F)cc1)c1nc(-c2ccc(Cl)c(O)c2)c(-c2ccnc(N)n2)[nH]1`, for which the IC50 was 150 nM.

For `CCN(CCCN1CCCCC1)c1cc(C)nc(Nc2ccc(C)cc2)n1`, the half-inhibitory concentration (IC50) amounted to 410 nM.

With `CN1CCCC1CNS(=O)(=O)c1ccc(C(=O)NCC2CC2)cc1` (configuration not stated), the IC50 worked out at 170 nM.

Turning to `Cc1c(C(=O)N(C)C)sc2c1c(=O)n(Cc1ccccc1)c(=O)n2CC(=O)Nc1ccccc1F`, the IC50 was 660 nM. This IC50 lies about 3.9-fold higher than the previous one.

The molecule `Cc1cc2ncn(-c3nccc(NCc4cccnc4)n3)c2cc1C` showed an IC50 of 660 nM.

Consider `CC1(C)N=C(N)N=C(N)N1OCc1cc(Cl)c(CON2C(N)=NC(N)=NC2(C)C)cc1Cl`, for which the IC50 was 40 nM.

Consider `CC(=NNC(=S)NC(C)(C)C)c1ccccn1`, for which the IC50 came to 160 nM.

Molecule `CCc1cn2c3c(cc(C(=O)N[C@@H](Cc4ccccc4)[C@H](O)CNC4CCOCC4)cc13)N(C)S(=O)(=O)C2` gave an IC50 of 90 nM. This IC50 is about 1.8-fold lower than that of the molecule before.

`c1ccc(CN2CCC(NCc3ccc(-c4ccc(CNCc5cccnc5)cn4)cc3)CC2)cc1` registered an IC50 of 880 nM.

The molecule `CCC(C)c1ccc(-n2c(Nc3ccccc3)nc3cc(S(N)(=O)=O)ccc32)cc1` (configuration not stated) yielded an IC50 of 1060 nM.

In turn, `CC1CCN(CC[C@H]2CCCN2S(=O)(=O)c2cccc(NC(=O)c3cc4ccccc4s3)c2)CC1` yielded a concentration for half-maximal inhibition (IC50) of 830 nM.

In the case of `O=c1cc(N2CCNCC2)c(Cl)nn1Cc1ccc(NS(=O)(=O)c2ccc(Oc3ccccc3)cc2)cc1`, the IC50 stood at 570 nM.

With `O=C(Nc1cccc(OCCN2CCCC2)c1)Nc1ccc(Cl)c(Cl)c1`, the IC50 was found to be 770 nM.

Take `N#Cc1ccc2c(c1)CCN(CCC1CCC(NC(=O)/C=C/c3cccc4ccccc34)CC1)CC2` (configuration not stated): the concentration for half-maximal inhibition (IC50) stood at 730 nM. The IC50 values of the last two molecules are within 1.5-fold of each other.

As for `COc1ccccc1N1CCN(C(C(=O)NCc2cccc(F)c2)c2ccc(C)cc2)CC1` (configuration not stated), the IC50 came out at 890 nM.

`C(=C(c1cccs1)c1cccs1)c1ccc(CNC2CCN(Cc3ccccc3)CC2)cc1`: the IC50 came to 160 nM. Against the preceding molecule, the IC50 is about 5.6-fold lower.

In the case of `COCCNCc1ccc(-c2ccc(CNC3CCN(Cc4ccccc4)CC3)cc2)cc1`, the IC50 came to 670 nM.

On to `NCC1CCCN1Cc1cccc(-c2cccc(-c3nc4ccc(F)cc4[nH]3)c2)c1` (configuration not stated), for which the IC50 came out at 810 nM.

On to `CS(=O)(=O)NCCCNCc1ccc(-c2ccc(-c3nc4ccc(F)cc4[nH]3)s2)cc1`, for which the IC50 was 810 nM.

Regarding `Cc1ccc(C(c2nnnn2C2CCCC2)N(Cc2ccco2)Cc2ccccc2Cl)cc1` (configuration not stated), the IC50 came out at 960 nM.

Take `c1ccc(-c2cccnn2)cc1`: the IC50 came to 910 nM.

Molecule `COc1cc(Cc2c(C)nc3nc(N)nc(N)c3c2C)c(Br)c(OC)c1OC` had an IC50 of 400 nM.

The molecule `NC(=NC1CC1)c1ccc2nc(CCCCCc3nc4ccc(C(N)=NC5CC5)cc4[nH]3)[nH]c2c1` registered an IC50 of 930 nM.

For the molecule `COc1cc(NC(=O)c2sc(-c3ccc(Cl)cc3)cc2NC(=O)CN2CCCC2)ccc1OCCN1CCCC1`, the IC50 is 930 nM.

With `C=CCn1c(SCC(=O)Nc2cc(C)ccc2OC)nc2sc(C)cc2c1=O`, the IC50 was found to be 420 nM.

The molecule `O=C(NCc1cccc(C(F)(F)F)c1)c1ccc(-c2nc3cc(F)c(F)cc3[nH]2)cc1` displayed an IC50 of 780 nM.

As for `Nc1cccc(CNCc2cccc(-c3cccc(-c4nc5ccc(C(F)(F)F)cc5[nH]4)c3)c2)c1`, the IC50 came out at 510 nM.

`Cc1cc(N2C(N)=NC(N)=NC2(C)C)ccc1Cl`: the IC50 came out at 20 nM.

`Cc1ccc(NCc2cccc(F)c2)cc1S(=O)(=O)N[C@@H]1CCN(C#N)C1` gave an IC50 of 790 nM. This IC50 is about 40-fold higher than that of the molecule before.

`COc1ccc(Cc2c(Cl)nc3nc(N)nc(N)c3c2C)cc1` registered an IC50 of 1090 nM.

For `NC(=NCc1ccc(O)cc1)Nc1nc(-c2ccc(OCCCn3ccnc3)cc2)cs1`, the IC50 is 750 nM.

Take `CN1CCc2cc(O)c(NS(=O)(=O)c3ccc(-c4ccc(Cl)cc4)cc3)cc2CC1`: the 50% inhibitory concentration (IC50) came to 770 nM.

Molecule `COC(=O)c1ccccc1COc1ccc(CC2(NC(=O)[C@H](Nc3ccc(C#N)c4ccccc34)C(C)(C)C)CCCC2)cc1` showed an IC50 of 860 nM.

With `O=C(CCc1cccnc1)Nc1cccc(-c2ccc(-c3nc4ccc(C(F)(F)F)cc4[nH]3)s2)c1`, the concentration for half-maximal inhibition (IC50) is 950 nM.

On to `CCN1CCC(NCc2ccc(-c3ccc(Cl)cc3)cc2)CC1`, for which the IC50 was 1020 nM.

As to `CCCCN(Cc1cc(Cl)c(OC)c(OC)c1)c1ccc(C(O)(C(F)(F)F)C(F)(F)F)cc1`, the half-inhibitory concentration (IC50) is 190 nM.

For the molecule `O=C(Nc1cccc(-c2ccc(-c3nc4ccccc4[nH]3)cc2)c1)c1cnn2cccnc12`, the IC50 turned out to be 1060 nM.

Turning to `O=C(/C=C/c1ccc(CNCCN2CCOCC2)cc1)NCCc1ccccc1`, the IC50 was 860 nM.

`CCCNCc1ccc(-c2ccc(CN(C(=O)c3nn(-c4ccccc4)nc3C)C3CC3)cc2)nc1` registered an IC50 of 210 nM.

`O=C(O)C1CC(=O)N(c2ccc(Cl)cc2)C1` (configuration not stated): the IC50 came out at 220 nM.

Turning to `CN1CC[C@@H](Oc2cc(NC(=O)Nc3ccccc3Br)ccc2Cl)C1`, the IC50 amounted to 1100 nM.

In turn, `Fc1ccc(COc2ccc(Nc3ncnc4ccc(I)cc34)cc2Cl)cc1` showed an IC50 of 1180 nM.

`CC(C)Oc1ccccc1-c1csc(C(=O)NCC2CCN(Cc3ccc(C(C)(C)C)cc3)C2)c1` (configuration not stated) had an IC50 of 1070 nM. The IC50 values of the last two molecules are within 1.5-fold of each other.

With `O=C(NC1CCC(CN2CCC(c3c[nH]c4ccccc34)CC2)CC1)c1csc(-c2ccc(C(F)(F)F)cc2Cl)n1` (configuration not stated), the IC50 was 830 nM. This IC50 and that of the molecule before are within 1.5-fold of each other.

In turn, `CCn1c(Sc2ccc(C#N)c([N+](=O)[O-])c2)nnc1-c1cc(OC)cc(OC)c1` displayed an IC50 of 570 nM.

Consider `COc1ccc(-c2ccc(CNCc3ccccc3)cc2)cc1S(=O)(=O)NCCN1CCCC1`, for which the IC50 turned out to be 730 nM.

Molecule `NC(N)=Nc1nc(-c2cccc(NC(=O)NCCc3c[nH]c4ccc(OCc5ccccc5)cc34)c2)cs1` gave an IC50 of 810 nM.

The values above are taken from PubChem BioAssay AID2305 (GlaxoSmithKline (GSK), 2010).
